In PubChem BioAssay (NCI):
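Five concentrations, 48 hours, 96-well plates. GI50 = concentration required for 50% inhibition of growth. TGI: total growth inhibition.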

Tests used:
Experiment in all cases: DTP human tumour cell line panel, 48 h
[1] = test system: BT-549 breast
[2] = test system: DU-145 prostate
[3] = test system: T-47D breast
[4] = test system: MDA-MB-435
[5] = test system: MCF7 breast

Row | Compound | GI50 [1] | TGI [1] | GI50 [2] | TGI [2] | GI50 [3] | TGI [3] | GI50 [4] | TGI [4] | GI50 [5] | TGI [5]
1 | COc1ccc(/C(C#N)=C/c2ccccc2OC)cc1 | 5.64 µM | > 100 µM | 27.7 µM | > 100 µM | 10 µM | > 100 µM | 1.95 µM | 5.72 µM | 4.3 µM | > 100 µM
2 | CCCCC(CC)CN=C(N)NC(N)=NCCCCCCN=C(N)NC(N)=NCC(CC)CCCC (configuration not stated) |  |  | 3.26 µM | 11.4 µM | 2.21 µM | 4.9 µM |  |  |  | 
3 | COc1ccc(-c2c3c(N)nc(-c4ccncc4)nc3nc3c2c(C)nn3-c2ccccc2)cc1 | 41.5 µM | > 100 µM | 7.39 µM | > 100 µM | 3.96 µM | > 100 µM | 5.29 µM | > 100 µM | 4.28 µM | > 100 µM
4 | CC1OC(O[C@@H]2OC=C(C=O)[C@@]3(O)CC[C@H](C)[C@@H]23)C(O)C(O)C1O (some centres not stated) |  | > 100 µM |  | > 100 µM |  | > 100 µM |  | > 100 µM |  | > 100 µM
5 | COc1ccc(/C=C2\CCCC3=C2N=C2SC(C)=NN2C3c2ccc(OC)c(OC)c2)cc1OC (configuration not stated) | 7.37 µM | > 100 µM | 10.7 µM | > 100 µM | 4.57 µM | > 100 µM | 3.27 µM | 69.3 µM | 3.04 µM | > 100 µM
6 | COc1ccc(-c2ccc(/C=N/n3c(COc4ccc(Cl)cc4Cl)nn(CN4CCOCC4)c3=S)o2)c([N+](=O)[O-])c1 | 13.2 µM | 44.6 µM | > 100 µM | > 100 µM | 38.6 µM | > 100 µM | 18.6 µM | 51.5 µM | 20.7 µM | 77.3 µM
7 | Cc1ccc(N=Nc2c(O)c(C(=O)O)cc3ccccc23)cc1C |  | > 100 µM |  |  |  |  |  | > 100 µM |  | > 100 µM
8 | CC(CCC(=O)O)[C@H]1CCC2[C@@H]3CC[C@@H]4CC(O)CC[C@]4(C)C3CC[C@@]21C (some centres not stated) | 53.9 µM | > 100 µM | 44.4 µM | > 100 µM | 33.7 µM | > 100 µM | 37.5 µM | > 100 µM | 30.2 µM | > 100 µM
9 | Cn1cc(-c2ccc3occ(-c4cccc(-c5ccncc5)c4)c3n2)cn1 | 1.22 µM | 17.1 µM | 2.65 µM | > 100 µM |  |  | 0.176 µM | 0.525 µM | 0.419 µM | > 100 µM
10 | COc1ccc(-c2n/c(=C\c3c(O)[nH]c4ccc(OC)cc34)cc3c2=Nc2ccccc2-3)cc1 |  |  |  |  | 11.8 µM | 40.5 µM |  |  |  | 
11 | COc1ccc2sc3c(NCCCN(C)C)nc4ccccc4c3c(=O)c2c1 | 5.24 µM | 18.1 µM | 1.66 µM | 3.07 µM | 1.86 µM | 4.24 µM | 1.59 µM | 2.98 µM | 1.74 µM | 3.4 µM
12 | O=C(/C=C/c1ccccc1)c1cc(Br)ccc1O |  | 33 µM |  | 28.4 µM |  | 25.5 µM |  | 32.6 µM |  | 31.5 µM
13 | Cc1ccc(-c2cn3ccnc3c(-c3ccc(Cl)cc3)n2)cc1 | 2.3 µM | 65.3 µM | 0.214 µM | 52.9 µM | 8.12 µM | > 58.5 µM | < 0.0126 µM | 0.185 µM | 0.28 µM | 19.2 µM
